Literature values in article doi:10.1101/2023.11.06.565863v1 (bioRxiv, 2023).

What was measured:
R1441C-LRRK2 MEFs [1] = system: R1441C-LRRK2 MEFs
R1441C-LRRK2 MEFs [2] = system: R1441C-LRRK2 MEFs; remark: listed apart in the source

C[C@@H]1CN(c2cc(-c3n[nH]c4ccc(OC5(C)CC5)cc34)ncn2)C[C@H](C)O1 [MLi2]
Centrosome cohesion defects of R1441C-LRRK2 MEFs vs littermate wildtype MEFs (R1441C-LRRK2 MEFs [1]): reverted | Ciliogenesis defects of R1441C-LRRK2 MEFs vs littermate wildtype MEFs (R1441C-LRRK2 MEFs [2]): reverted
